Measurements: PubChem BioAssay AID1918994 (Molecular Pharmacology Branch, DTP, NCI, 2023)

System: 292921-168-R-J2-PDC complex spheroid growth
Assay: Anticancer human tumor 292921-168-R-J2-PDC patient-derived pancreatic carcinoma cell line growth inhibition [AhR]
Details: for IC50: curve of first compound; for viability, T/C: stronger effect = lower value
Text: Multicellular complex tumor spheroid response to aryl hydrocarbon receptor antagonists in combination with a variety of drugs and investigational agents in selected tumor cell lines
The current study was undertaken to assess response to aryl hydrocarbon receptor antagonists in combination with standard-of-care drugs and investigational agents in solid tumor complex spheroid models. Complex spheroids include a stromal component modeled by human endothelial cells (HUVEC) and fibroblasts modeled by human mesenchymal stem cells (MSCs). The concentration ranges selected for each drug and investigational agent were based upon clinically achievable concentrations if the clinical Cmax of the agent was known.
Compounds. The drugs and investigational agents: BAY 2416964 (NSC825713), GNF351 (NSC835774), CH-223191 (NSC835775), CPI-455 (NSC825282), aza-TdCyd (NSC777586), decitabine (NSC127716), belinostat (NSC758774), entinostat (NSC756642), pevonedistat (NSC761192), tazemetostat (NSC777109), talazoparib (NSC765396), olaparib (NSC753686), selinexor (NSC780203), nedisertib (M3814, NSC802822), bortezomib (NSC756655), venetoclax (NSC766270), doxorubicin (NSC123127), elimusertib (BAY189344, NSC800525), ceralasertib (AZD6738, NSC777638), TAK-243 (NSC785004), alisertib (NSC759677), etoposide (NSC141540), topotecan (NSC609699), eribulin (NSC707389), gemcitabine (NSC613327), carboplatin (NSC241240), cisplatin (NSC119875), and SN-38 (NSC673596) were obtained from the National Cancer Institute (NCI) Developmental Therapeutics Program Chemical Repository (32). The FDA-approved anticancer drug set is available from the Developmental Therapeutics Program at https://dtp.cancer.gov/organization/dscb/obtaining/available plates.htm. […] The stock solutions were prepared in dimethyl sulfoxide (DMSO, Sigma-Aldrich, St. Louis, MO, cat. D2650), except for the platinum compounds which were prepared in saline (Quality Biological, Gaithersburg, MD, cat. 114-055-101), at 800-fold the tested concentration and stored at -70 degrees C prior to their use. All drugs and investigational agents were tested over a range starting from a high concentration at or near the clinical Cmax and decreasing in half-log increments. If the clinical Cmax for an agent had not been determined, the highest concentration tested was 10 microM (Table 1).
Cell Culture. All cells were maintained in an incubator at 37 degrees C and 5% CO2 with 95% humidity. The PDC lines were cultured according to standard operating procedures established by the NCI PDMR (https://pdmr.cancer.gov). Briefly, all PDCs were thawed and cultured in Matrigel-coated flasks prepared with a working solution of 1X Ham's F-12 nutrient mix, without supplementation (Invitrogen, Waltham, MA, cat. 11765054), 100 U/mL penicillin-streptomycin (Invitrogen, cat. 15140122), and 2.5% Matrigel (Corning Inc., Corning, NY, cat. 354248) for the first three passages. All PDCs were cultured in complete DMEM/F-12 media containing advanced DMEM/F-12 (Invitrogen, cat. 12634028), 4.9% defined fetal bovine serum, heat inactivated (HyClone Laboratories Inc., Logan, UT, cat. SH30070.03HI), 389 ng/mL hydrocortisone (Sigma-Aldrich, cat. H4001), 9.7 ng/mL human EGF recombinant protein (Invitrogen, cat. PHG0313), 23.4 microg/mL adenine (Sigma-Aldrich, cat. A2786), 97.3 U/mL penicillin-streptomycin (Invitrogen, cat. 15140122), 1.9 mM L-glutamine (Invitrogen, cat. 25030081), and 9.7 microM Y-27632 dihydrochloride (Tocris Bioscience, Bristol, United Kingdom, cat. 1254). The PDCs were cultured in complete DMEM/F12 media without 10 microM Y-27632 dihydrochloride for at least two passages prior to the screen. The established cell lines NCI-H1341 and […] were cultured in DMEM/F-12, HEPES (Invitrogen, cat. 11330032), 5% defined fetal bovine serum (HyClone Laboratories Inc., cat. SH30070.03), ITS premix universal culture supplement [insulin (5 microg/mL), transferrin (5 microg/mL), and selenious acid (5 ng/mL)] […]

[1] = second compound 0.1 µM, first compound 0.0316 µM
[2] = second compound 0.1 µM, first compound 0.1 µM
[3] = second compound 0.1 µM, first compound 0.316 µM
[4] = second compound 0.1 µM, first compound 1 µM
[5] = second compound 0.1 µM, first compound 3.16 µM
[6] = second compound 0.1 µM, first compound 10 µM
[7] = second compound 0.316 µM, first compound 0.0316 µM
[8] = second compound 0.316 µM, first compound 0.1 µM
[9] = second compound 0.316 µM, first compound 0.316 µM
[10] = second compound 0.316 µM, first compound 1 µM
[11] = second compound 0.316 µM, first compound 3.16 µM
[12] = second compound 0.316 µM, first compound 10 µM
[13] = second compound 1 µM, first compound 0.0316 µM
[14] = second compound 1 µM, first compound 0.1 µM
[15] = second compound 1 µM, first compound 0.316 µM
[16] = second compound 1 µM, first compound 1 µM
[17] = second compound 1 µM, first compound 3.16 µM
[18] = second compound 1 µM, first compound 10 µM
[19] = second compound 3.16 µM, first compound 0.0316 µM
[20] = second compound 3.16 µM, first compound 0.1 µM
[21] = second compound 3.16 µM, first compound 0.316 µM
[22] = second compound 3.16 µM, first compound 1 µM
[23] = second compound 3.16 µM, first compound 3.16 µM
[24] = second compound 3.16 µM, first compound 10 µM
[25] = second compound 10 µM, first compound 0.0316 µM
[26] = second compound 10 µM, first compound 0.1 µM
[27] = second compound 10 µM, first compound 0.316 µM
[28] = second compound 10 µM, first compound 1 µM
[29] = second compound 10 µM, first compound 3.16 µM
[30] = second compound 10 µM, first compound 10 µM
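Also: spheroids exposed to compounds for seven days after three days of growth.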

IC50 (second compound 0.1 µM) [µM]	IC50 (second compound 0.316 µM) [µM]	IC50 (second compound 1 µM) [µM]	IC50 (second compound 3.16 µM) [µM]	IC50 (second compound 10 µM) [µM]	SMILES	viability, T/C [1] [%]	viability, T/C [2] [%]	viability, T/C [3] [%]	viability, T/C [4] [%]	viability, T/C [5] [%]	viability, T/C [6] [%]	viability, T/C [7] [%]	viability, T/C [8] [%]	viability, T/C [9] [%]	viability, T/C [10] [%]	viability, T/C [11] [%]	viability, T/C [12] [%]	viability, T/C [13] [%]	viability, T/C [14] [%]	viability, T/C [15] [%]	also measured
< 0.0316	< 0.0316	< 0.0316	< 0.0316	< 0.0316	Nc1ccn(C2OC(CO)C(O)C2(F)F)c(=O)n1 (stereo not given) + CC(CO)NC(=O)c1cc(-c2ccc(Cl)cc2)nn(-c2cnn(C)c2)c1=O	11.7	10.2	11.1	11.1	10.3	6.84	11.8	11.3	9.79	10.8	11.9	6.25	12	11.8	11.7	viability, T/C [16]: 11.1%; viability, T/C [17]: 11.9%; viability, T/C [18]: 7.23%; viability, T/C [19]: 12.2%; viability, T/C [20]: 10.9%; viability, T/C [21]: 12.2%; viability, T/C [22]: 11%; viability, T/C [23]: 10.5%; viability, T/C [24]: 6.81%; viability, T/C [25]: 14.2%; viability, T/C [26]: 12.8%; viability, T/C [27]: 11.9%; viability, T/C [28]: 11.6%; viability, T/C [29]: 10.3%; viability, T/C [30]: 8.31%
> 10	> 10	> 10	> 10	> 10	O=C(c1cc(Cc2n[nH]c(=O)c3ccccc23)ccc1F)N1CCN(C(=O)C2CC2)CC1 + CC(CO)NC(=O)c1cc(-c2ccc(Cl)cc2)nn(-c2cnn(C)c2)c1=O	100	96.1	92.4	98.8	78.4	64	97.4	98.4	99.4	90.1	74.3	66.7	90.3	103	94.7	viability, T/C [16]: 90.2%; viability, T/C [17]: 78.2%; viability, T/C [18]: 66.2%; viability, T/C [19]: 85.9%; viability, T/C [20]: 86%; viability, T/C [21]: 81.8%; viability, T/C [22]: 83.7%; viability, T/C [23]: 70.8%; viability, T/C [24]: 55.9%; viability, T/C [25]: 67.5%; viability, T/C [26]: 62.8%; viability, T/C [27]: 67.1%; viability, T/C [28]: 63.4%; viability, T/C [29]: 56.6%; viability, T/C [30]: 49%
